Results on 26 compounds are retold here after patent publication US20240239775A1, “FXR REGULATOR, PREPARATION METHOD THEREFOR, PHARMACEUTICAL COMPOSITION THEREOF AND USE THEREOF” (QINGDAO RUIJI MEDICAL TECHNOLOGY CO., LTD., priority 2021, published 2024).

This assay deals with T1, FXR (Homo sapiens, UniProt Q96RI1).
T1 construct: 5 μL of 20 nM FXR-LBD Complete Coregulator buffer G; purchased ThermoFisher PV4833
T1 sequence (Q96RI1 262-486 limits assumed): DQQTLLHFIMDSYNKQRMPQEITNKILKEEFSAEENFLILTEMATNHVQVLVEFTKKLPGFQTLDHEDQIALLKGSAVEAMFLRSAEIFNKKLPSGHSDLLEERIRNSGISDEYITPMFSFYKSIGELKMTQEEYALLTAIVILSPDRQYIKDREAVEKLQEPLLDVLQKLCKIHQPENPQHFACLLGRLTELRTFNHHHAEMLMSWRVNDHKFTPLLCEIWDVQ
The experiment in a line: FXR antagonist screening by TR-FRET (LanthaScreen TR-FRET FXR co-activation assay kit). The assay is classed as biochemical. The settings on record: Table 1.1, FXR antagonistic activity; TR-FRET with CDCA; geometric means of at least two independent runs. Summed up: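 FXR-LBD (20 nM working solution) mixed with compound, CDCA (200 μM working solution) as agonist, Fluorescein-SRC2-2 and Tb-anti-GST antibody in Coregulator buffer G; 10 h at room temperature. Coactivator recruitment read by TR-FRET, triplicate wells.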

Regarding `CCOC(=O)c1oc2ccc(S(=O)(=O)N(CCc3ccccc3)Cc3ccccc3F)cc2c1C` [Example M4-14, ethyl 3-methyl-5-(N-(2-fluorobenzyl)-N-phenethylsulfamoyl)benzofuran-2-carboxylate], the IC50 was 50 to 100 µM. Next, `CCOC(=O)c1oc2ccc(S(=O)(=O)N(CCc3ccccc3)Cc3ccccc3Cl)cc2c1C` [Example M4-15, ethyl 3-methyl-5-(N-(2-chlorobenzyl)-N-phenethylsulfamoyl)benzofuran-2-carboxylate]: 50 to 100 µM; `CCOC(=O)c1oc2ccc(S(=O)(=O)N(CCc3ccccc3)Cc3ccccc3Br)cc2c1C` [Example M4-16, ethyl 3-methyl-5-(N-(2-bromobenzyl)-N-phenethylsulfamoyl)benzofuran-2-carboxylate]: 50 to 100 µM. To `CCOC(=O)c1oc2ccc(S(=O)(=O)N(CCc3ccccc3)Cc3ccccc3C)cc2c1C` [Example M4-17, ethyl 3-methyl-5-(N-(2-methylbenzyl)-N-phenethylsulfamoyl)benzofuran-2-carboxylate] belongs 50 to 100 µM. As to `CCOC(=O)c1oc2ccc(S(=O)(=O)N(CCc3ccccc3)Cc3ccccc3C(F)(F)F)cc2c1C` [Example M4-18, ethyl 3-methyl-5-(N-(2-trifluoromethylbenzyl)-N-phenethylsulfamoyl)benzofuran-2-carboxylate], the IC50 fell in the range of 50 to 100 µM. As for `CCOC(=O)c1oc2ccc(S(=O)(=O)N(CCc3ccccc3)Cc3ccccc3[N+](=O)[O-])cc2c1C` [Example M4-19, ethyl 3-methyl-5-(N-(2-nitrobenzyl)-N-phenethylsulfamoyl)benzofuran-2-carboxylate], the IC50 was 50 to 100 µM. Next, `CCOC(=O)c1oc2ccc(S(=O)(=O)N(CCc3ccccc3)Cc3cccc(F)c3)cc2c1C` [Example M4-20, ethyl 3-methyl-5-(N-(3-fluorobenzyl)-N-phenethylsulfamoyl)benzofuran-2-carboxylate]: 50 to 100 µM; `CCOC(=O)c1oc2ccc(S(=O)(=O)N(CCc3ccccc3)Cc3cccc(Cl)c3)cc2c1C` [Example M4-21, ethyl 3-methyl-5-(N-(3-chlorobenzyl)-N-phenethylsulfamoyl)benzofuran-2-carboxylate]: 50 to 100 µM.

In turn, `CCOC(=O)c1oc2ccc(S(=O)(=O)N(CCc3ccccc3)Cc3cccc(Br)c3)cc2c1C` [Example M4-22, ethyl 3-methyl-5-(N-(3-bromobenzyl)-N-phenethylsulfamoyl)benzofuran-2-carboxylate] had an IC50 of 50 to 100 µM. To `CCOC(=O)c1oc2ccc(S(=O)(=O)N(CCc3ccccc3)Cc3cccc(C)c3)cc2c1C` [Example M4-23, ethyl 3-methyl-5-(N-(3-methylbenzyl)-N-phenethylsulfamoyl)benzofuran-2-carboxylate] belongs 50 to 100 µM. In the case of `CCOC(=O)c1oc2ccc(S(=O)(=O)N(CCc3ccccc3)Cc3cccc(C(F)(F)F)c3)cc2c1C` [Example M4-24, ethyl 3-methyl-5-(N-(3-trifluoromethylbenzyl)-N-phenethylsulfamoyl)benzofuran-2-carboxylate], the IC50 lay in the range of 50 to 100 µM. Take `CCOC(=O)c1oc2ccc(S(=O)(=O)N(CCc3ccccc3)Cc3cccc([N+](=O)[O-])c3)cc2c1C` [Example M4-25, ethyl 3-methyl-5-(N-(3-nitrobenzyl)-N-phenethylsulfamoyl)benzofuran-2-carboxylate]: the IC50 was 50 to 100 µM. Next, `CCOC(=O)c1oc2ccc(S(=O)(=O)N(CCc3ccccc3)Cc3cccc(-c4ccccc4)c3)cc2c1C` [Example M4-26, ethyl 3-methyl-5-(N-([1,1′-biphenyl]-3-ylmethyl)-N-phenethylsulfamoyl)benzofuran-2-carboxylate]: 50 to 100 µM.

For the compound `CCOC(=O)c1oc2ccc(S(=O)(=O)N(CCc3ccccc3)Cc3cccc(Oc4ccccc4)c3)cc2c1C` [Example M4-27], the IC50 is 50 to 100 µM. Next, `CCOC(=O)c1oc2ccc(S(=O)(=O)N(CCc3ccccc3)Cc3ccc(F)cc3)cc2c1C` [Example M4-28, ethyl 3-methyl-5-(N-(4-fluorobenzyl)-N-phenethylsulfamoyl)benzofuran-2-carboxylate]: 50 to 100 µM.

As to `CCOC(=O)c1oc2ccc(S(=O)(=O)N(CCc3ccccc3)Cc3ccc(Cl)cc3)cc2c1C` [Example M4-29, ethyl 3-methyl-5-(N-(4-chlorobenzyl)-N-phenethylsulfamoyl)benzofuran-2-carboxylate], the IC50 lay within 50 to 100 µM. Next, `CCOC(=O)c1oc2ccc(S(=O)(=O)N(CCc3ccccc3)Cc3ccc(Br)cc3)cc2c1C` [Example M4-30, ethyl 3-methyl-5-(N-(4-bromobenzyl)-N-phenethylsulfamoyl)benzofuran-2-carboxylate]: 50 to 100 µM; `CCOC(=O)c1oc2ccc(S(=O)(=O)N(CCc3ccccc3)Cc3ccc(C)cc3)cc2c1C` [Example M4-31, ethyl 3-methyl-5-(N-(4-methylbenzyl)-N-phenethylsulfamoyl)benzofuran-2-carboxylate]: 50 to 100 µM. For the compound `CCOC(=O)c1oc2ccc(S(=O)(=O)N(CCc3ccccc3)Cc3ccc(C(F)(F)F)cc3)cc2c1C` [Example M4-32, ethyl 3-methyl-5-(N-(4-trifluoromethylbenzyl)-N-phenethylsulfamoyl)benzofuran-2-carboxylate], the IC50 lay in the range of 50 to 100 µM. Next, `CCOC(=O)c1oc2ccc(S(=O)(=O)N(CCc3ccccc3)Cc3ccc(C#N)cc3)cc2c1C` [Example M4-33, ethyl 3-methyl-5-(N-(4-cyanobenzyl)-N-phenethylsulfamoyl)benzofuran-2-carboxylate]: 50 to 100 µM; `CCOC(=O)c1oc2ccc(S(=O)(=O)N(CCc3ccccc3)Cc3ccc(OC(F)(F)F)cc3)cc2c1C` [Example M4-34, ethyl 3-methyl-5-(N-(4-(trifluoromethoxy)benzyl)-N-phenethylsulfamoyl)benzofuran-2-carboxylate]: 50 to 100 µM. For `CCOC(=O)c1oc2ccc(S(=O)(=O)N(CCc3ccccc3)Cc3ccc(SC(F)(F)F)cc3)cc2c1C` [Example M4-35, ethyl 3-methyl-5-(N-(4-(trifluoromethylthio)benzyl)-N-phenethylsulfamoyl)benzofuran-2-carboxylate], the IC50 is 50 to 100 µM. Next, `CCOC(=O)c1oc2ccc(S(=O)(=O)N(CCc3ccccc3)Cc3ccc(C(C)C)cc3)cc2c1C` [Example M4-36, ethyl 3-methyl-5-(N-(4-isopropylbenzyl)-N-phenethylsulfamoyl)benzofuran-2-carboxylate]: 50 to 100 µM. Next, `CCOC(=O)c1oc2ccc(S(=O)(=O)N(CCc3ccccc3)Cc3ccc(C(C)(C)C)cc3)cc2c1C` [Example M4-37, ethyl 3-methyl-5-(N-(4-(tert-butyl)benzyl)-N-phenethylsulfamoyl)benzofuran-2-carboxylate]: 50 to 100 µM; `CCOC(=O)c1oc2ccc(S(=O)(=O)N(CCc3ccccc3)Cc3ccc(C(C)=O)cc3)cc2c1C` [Example M4-38, ethyl 3-methyl-5-(N-(4-acetylbenzyl)-N-phenethylsulfamoyl)benzofuran-2-carboxylate]: 50 to 100 µM.

The compound `CCOC(=O)c1oc2ccc(S(=O)(=O)N(CCc3ccccc3)Cc3ccc(C(=O)OC)cc3)cc2c1C` [Example M4-39, ethyl 3-methyl-5-(N-(4-(methoxycarbonyl)benzyl)-N-phenethylsulfamoyl)benzofuran-2-carboxylate] had an IC50 of 50 to 100 µM.

In general, IC50 refers to the concentration that gives 50% inhibition. A high value points to weaker potency.
